The numbers were not newly measured in patent publication US20180092930A1, “METHODS OF DIAGNOSING AND TREATING ABIRATERONE ACETATE- GLUCOCORTICOID -RESISTANT OR -SENSITIVE METASTATIC CASTRATION RESISTANT PROSTATE CANCER” (Janssen Pharmaceutica NV, priority 2016, published 2018), which cites them from elsewhere.

Series [1] relates to castration-resistant prostate cancer.
For the next series, the system named is CRPC. The following applies: pooled patients treated with AA or enzalutamide.

Molecules are shown by their SMILES. Read-outs that look alike come from different tables or passages of the source.

For the compound `CC(=O)O[C@H]1CC[C@@]2(C)C(=CC[C@@H]3[C@@H]2CC[C@]2(C)C(c4cccnc4)=CC[C@@H]32)C1` [abiraterone acetate], in series [1] (ARV7-negative patients), the PSA response rate was 68%; the “PSA-PFS, median” value is given as “not reached”; the “clinical or radiographic progression-free survival, median” value is on record as “not reached”; the “overall survival, median” value is given as “not reached”. In series [1] (ARV7-positive patients), the PSA response rate is 0%; the “PSA-PFS, median” value is reported as 1.3 months; the “clinical or radiographic progression-free survival, median” value is 2.3 months; the “overall survival, median” value is on record as 10.6 months. For the same compound, in the series on CRPC (ARV7+ at baseline), the OS is 8 months. In the series with CRPC (ARV7- at baseline), the OS entry is “not reached”.
`CNC(=O)c1ccc(N2C(=S)N(c3ccc(C#N)c(C(F)(F)F)c3)C(=O)C2(C)C)cc1F` [enzalutamide]: the OS in the series with CRPC (ARV7+ at baseline) is 8 months; in the series with CRPC (ARV7- at baseline) it was “not reached”.
